From PMC9078765, “Utilizing Network Pharmacology and Molecular Docking Integrated Surface Plasmon Resonance Technology to Investigate the Potential Targets and Mechanisms of Tripterygium wilfordii against Pulmonary Artery Hypertension” (Evidence-based Complementary and Alternative Medicine : eCAM, 2022) come the findings set out here.

In this experiment the target is T1, CASP3 (Casp3) (Homo sapiens, UniProt P42574).
T1 construct: commercial recombinant protein, captured on Ni-NTA chip (His tag implied)
T1 sequence (P42574 29-175): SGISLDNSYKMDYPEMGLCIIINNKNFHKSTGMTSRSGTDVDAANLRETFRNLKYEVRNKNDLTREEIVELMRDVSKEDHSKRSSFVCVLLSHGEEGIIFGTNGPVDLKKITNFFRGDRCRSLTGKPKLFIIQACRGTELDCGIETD
T1 sequence (P42574 176-277): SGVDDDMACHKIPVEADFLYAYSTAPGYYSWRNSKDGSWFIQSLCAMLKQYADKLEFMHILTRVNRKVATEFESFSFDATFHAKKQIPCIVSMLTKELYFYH
The experiment is described as follows: SPR (OpenSPR, NTA chip, one-to-one model). It is filed as binding. The source says:
SPR (OpenSPR, NTA chip, one-to-one model) on CASP3 (Casp3)

`O=c1c(O)c(-c2ccc(O)cc2)oc2cc(O)cc(O)c12` [Kaempferol] displayed a Kd of 7.65 µM.

The Kd is the free concentration of one partner at which half of the binding sites on the other are occupied at equilibrium, for simple one-to-one binding. A low value points to tighter binding.
